Measured values taken from the CheMixHub viscosity set.

Assay: xn = mol fraction of the nth substance listed

C=CC(=O)OCC + CCOCCOCCO
viscosity [mPa·s], 101 kPa
Settings | 293.15 K | 298.15 K | 303.15 K | 308.15 K | 313.15 K | 318.15 K
x2 = 0.0707 | 0.666 | 0.624 | 0.587 | 0.551 | 0.521 | 0.499
x2 = 0.1417 | 0.76 | 0.708 | 0.662 | 0.62 | 0.582 | 0.547
x2 = 0.2167 | 0.879 | 0.813 | 0.756 | 0.704 | 0.66 | 0.619
x2 = 0.2803 | 0.997 | 0.918 | 0.85 | 0.79 | 0.735 | 0.686
x2 = 0.3626 | 1.192 | 1.075 | 0.989 | 0.914 | 0.847 | 0.788
x2 = 0.4228 | 1.335 | 1.227 | 1.113 | 1.024 | 0.946 | 0.877
x2 = 0.5004 | 1.571 | 1.438 | 1.305 | 1.175 | 1.079 | 0.995
x2 = 0.5659 | 1.812 | 1.628 | 1.477 | 1.329 | 1.214 | 1.112
x2 = 0.6497 | 2.136 | 1.927 | 1.737 | 1.563 | 1.411 | 1.287
x2 = 0.7196 | 2.467 | 2.207 | 1.956 | 1.759 | 1.599 | 1.459
x2 = 0.791 | 2.845 | 2.512 | 2.233 | 1.998 | 1.797 | 1.627
x2 = 0.869 | 3.342 | 2.93 | 2.558 | 2.302 | 2.046 | 1.857
x2 = 0.9299 | 3.752 | 3.274 | 2.84 | 2.552 | 2.258 | 2.044

Clc1ccccc1 + CN1CCCC1=O
viscosity [mPa·s], 101 kPa
Settings | x2 = 0.1055 | x2 = 0.2097 | x2 = 0.3127 | x2 = 0.4144 | x2 = 0.5149 | x2 = 0.6142 | x2 = 0.7124 | x2 = 0.8094 | x2 = 0.9052
303.15 K | 0.8395 | 0.9497 | 1.057 | 1.153 | 1.242 | 1.322 | 1.39 | 1.455 | 1.508
308.15 K | 0.7814 | 0.8809 | 0.9724 | 1.059 | 1.14 | 1.207 | 1.267 | 1.323 | 1.366
313.15 K | 0.737 | 0.8284 | 0.9144 | 0.9933 | 1.067 | 1.132 | 1.187 | 1.24 | 1.282
318.15 K | 0.6786 | 0.7611 | 0.8372 | 0.9111 | 0.9802 | 1.04 | 1.093 | 1.137 | 1.175

CCOP(=O)(OCC)OCC + CN(C)C=O
298.15 K, 101.3 kPa
Settings | viscosity [mPa·s]
x1 = 0.1003 | 0.883
x1 = 0.2008 | 0.967
x1 = 0.298 | 1.044
x1 = 0.398 | 1.123
x1 = 0.4979 | 1.195
x1 = 0.6076 | 1.268
x1 = 0.6995 | 1.329
x1 = 0.7969 | 1.389
x1 = 0.8973 | 1.447

CCc1ccccc1 + CN(C)C=O
viscosity [mPa·s], 101.33 kPa
Settings | 303.15 K | 313.15 K
x2 = 0.0997 | 0.597 | 0.542
x2 = 0.1996 | – | 0.556
x2 = 0.1997 | 0.614 | –
x2 = 0.2997 | – | 0.568
x2 = 0.2999 | 0.631 | –
x2 = 0.4154 | 0.652 | 0.584
x2 = 0.5109 | 0.667 | 0.597
x2 = 0.584 | 0.679 | 0.608
x2 = 0.6991 | 0.696 | 0.625
x2 = 0.8014 | 0.709 | 0.641
x2 = 0.8872 | 0.719 | 0.652

Clc1ccccc1 + CN(C)C=O
viscosity [mPa·s], 101.33 kPa
Settings | x2 = 0.1076 | x2 = 0.2986 | x2 = 0.397 | x2 = 0.5024 | x2 = 0.6054 | x2 = 0.7013 | x2 = 0.7925 | x2 = 0.8973
303.15 K | 0.731 | 0.76 | 0.767 | – | 0.773 | 0.774 | 0.771 | 0.754
313.15 K | – | – | 0.69 | 0.694 | 0.695 | 0.694 | 0.688 | –

N#CCCCCC#N + CN(C)C=O
303.15 K, 101.33 kPa
Settings | viscosity [mPa·s]
x1 = 0.1051 | 0.9087
x1 = 0.2983 | 1.335
x1 = 0.3971 | 1.636
x1 = 0.4957 | 2.001
x1 = 0.5919 | 2.413
x1 = 0.6983 | 2.957
x1 = 0.8486 | 3.821

OCCCCCO + CN(C)C=O
308.15 K, 101 kPa
Settings | viscosity [mPa·s]
x1 = 0.025 | 0.759
x1 = 0.0483 | 0.826
x1 = 0.1005 | 1.025
x1 = 0.1877 | 1.446
x1 = 0.2971 | 2.284
x1 = 0.388 | 3.676
x1 = 0.4882 | 5.774
x1 = 0.586 | 9.073
x1 = 0.6875 | 14.59
x1 = 0.7802 | 22.71
x1 = 0.9446 | 49.91
x1 = 0.9714 | 56.42

CCOP(=O)(OCC)OCC + CNC=O
298.15 K, 101.3 kPa
Settings | viscosity [mPa·s]
x1 = 0.0969 | 1.719
x1 = 0.1954 | 1.713
x1 = 0.294 | 1.689
x1 = 0.399 | 1.654
x1 = 0.5004 | 1.625
x1 = 0.5987 | 1.599
x1 = 0.6978 | 1.571
x1 = 0.799 | 1.546
x1 = 0.8929 | 1.524
